{"source": "patent US4501734A", "about": "“Promotion of absorption of drugs administered through the alimentary system” (priority 1981, dated 1985)", "key": {"duodenum mucosa": {"tested_on": "duodenum mucosa", "experiment": "Observation of the duodenum employed in the experiment for mucosa damage", "format": "in vivo", "conditions": "rat duodenum employed in the experiment", "experimental": "(§1) Experimental method A was repeated except that saponins A, B and C were respectively used in a concentration of 5 mg/liter in place of the galenical extract in a solution to be administered.\nExamples according to the above experimental method are shown in the following Examples 6, 7 and 8. […] This may be ascribed to low acute toxicity of the drug absorption promoter of the present invention, as can readily be understood from the fact that the galenicals used in the present invention have been widely accepted as herb medicines or the like."}, "[1]": {"experiment": "Ampicillin blood level after suppository with saponin A, B or C (suppository tests)", "format": "in vivo", "conditions": "rat", "experimental": "The effectiveness of the saponins A, B and C when they were formulated into suppositories was tested in a method similar to the above Experimental method A.\nThus, rats weighing 180 to 220 g were anesthetized with 30 mg/kg of pentobarbital sodium and fixed by supination on a water bed made of a metal through which water regulated at a constant temperature of 39° C. was circulated. A suppository in a proportion of 1 g/kg of body weight of the rat was inserted through the anus and pushed by a glass bar until it reached the connecting point of the pubes.\nThe suppositories tested had the following compositions:\nSaponin A, B or C: 0.5-2 mg/kg-rat, and\nVehicle*: remainder for giving 1 mg of suppository/kg-rat.\n*Witepsol® produced by Dynamit Novel A.G.\nThus, the assay was performed by the paper disc method according to The Japan Antibiotic Drug Standards using Bacillus subtilis as the test microorganism."}, "[2]": {"experiment": "Ampicillin blood level after administration with galenical extract by stomach probe (Experimental method B)", "format": "in vivo", "conditions": "rat", "experimental": "Rats weighing 200 to 230 g under anesthesia with ether were intubated with polyethylene tube (PE-10) at the femoral artery with ligation. The other end of PE-10 was passed subcutaneously to be led to the cervicodorsal part, at which it was drawn out of the skin and fixed with capping. After restoration of the vulnus at the operated portion (about 24 hours), each rat was provided for the experiment.\nThe test microorganism used was Bacillus subtilis, and the assay was performed by the paper disc method according to The Japan Antibiotic Drug Standards."}, "[3]": {"experiment": "Ampicillin blood level after injection with galenical extract or isolated saponin into rat duodenal loop (Experimental method A)", "conditions": "in vivo", "experimental": "Rats weighing 180 to 220 g were anesthetized with 30 mg/kg of pentobarbital sodium and fixed by supination on a water bed made of a metal through which water regulated at a constant temperature of 39° C. was circulated. A duodenal loop of 10 cm length was prepared in a conventional manner with the point 1 cm under the pyloric part of the stomach as the starting point. […] The rats were bled from jugular veins 10, 20, 40, 60, 90, 120, 180 and 240 minutes after injection and activity concentration in the blood in each case was measured according to biological assay.\nThat is, according to The Japan Antibiotic Drug Standards, using Bacillus subtilis as test microorganism, cultivation assay was performed by the paper disc method at 37° C. for 15 to 20 hours.\nThe composition of the solution had the following composition:\nGalenical extract: 2 mg/ml-20 mg/ml\nas §1"}}}
{"compound": "C[C@@H]1O[C@@H](O[C@H]2[C@H](O[C@H]3CC[C@@]4(C)[C@@H](CC[C@]5(C)[C@@H]4CC=C4[C@@H]6CC(C)(C)CC[C@]6(C(=O)O)CC[C@]45C)[C@]3(C)CO)OC[C@H](O)[C@@H]2O)[C@H](O)[C@H](O[C@@H]2OC[C@H](O)[C@H](O)[C@H]2O)[C@H]1O", "note": "[Saponin A, 3-O-[α-L-arabinopyranosyl-(1→3)-α-L-rhamnopyranosyl-(1→2) -α-L-arabinopyranosyl]-hederagenin]", "values": [{"measurement": "damage of mucosa or abnormality such as hemorrhagic spot of the duodenum", "setting": "duodenum mucosa", "result": "no damage of mucosa (e.g. mucosa ablation) or abnormality such as hemorrhagic spot"}]}
{"compound": "C[C@@H]1O[C@@H](O[C@H]2[C@H](O[C@H]3CC[C@@]4(C)[C@@H](CC[C@]5(C)[C@@H]4CC=C4[C@@H]6CC(C)(C)CC[C@]6(C(=O)O)CC[C@]45C)[C@]3(C)CO)OC[C@H](O)[C@@H]2O)[C@H](O)[C@H](O[C@@H]2OC[C@@H](O)[C@H](O)[C@H]2O)[C@H]1O", "note": "[Saponin B, 3-O-[β-D-xylopyranosyl-(1→3)-α-L-rhamnopyranosyl-(1→2)-α-L-arabinopyranosyl]-hederagenin]", "values": [{"measurement": "damage of mucosa or abnormality such as hemorrhagic spot of the duodenum", "setting": "duodenum mucosa", "result": "no damage of mucosa (e.g. mucosa ablation) or abnormality such as hemorrhagic spot"}]}
{"compound": "C[C@@H]1O[C@@H](O[C@H]2[C@H](O[C@H]3CC[C@@]4(C)[C@@H](CC[C@]5(C)[C@@H]4CC=C4[C@@H]6CC(C)(C)CC[C@]6(C(=O)O)CC[C@]45C)[C@]3(C)CO)OC[C@H](O)[C@@H]2O)[C@H](O)[C@H](O[C@@H]2O[C@@H](CO)[C@H](O)[C@H]2O)[C@H]1O", "note": "[Saponin C, 3-O-[α-L-arabinofuranosyl-(1→3)-α-L-rhamnopyranosyl-(1→2)-α-L-arabinopyranosyl]-hederagenin]", "values": [{"measurement": "damage of mucosa or abnormality such as hemorrhagic spot of the duodenum", "setting": "duodenum mucosa", "result": "no damage of mucosa (e.g. mucosa ablation) or abnormality such as hemorrhagic spot"}]}
{"compound": "CC1(C)S[C@@H]2[C@H](NC(=O)[C@H](N)c3ccccc3)C(=O)N2[C@H]1C(=O)O", "note": "[ampicillin sodium]", "values": [{"measurement": "concentration at 5 min", "setting": "[1]; in vivo, 50 mg/kg", "result": "3120 ± 1660", "unit": "ng/mL"}, {"measurement": "concentration at 10 min", "setting": "[1]; in vivo, 50 mg/kg", "result": "3980 ± 1890", "unit": "ng/mL"}, {"measurement": "concentration at 35 min", "setting": "[1]; in vivo, 50 mg/kg", "result": "1910 ± 890", "unit": "ng/mL"}, {"measurement": "concentration at 1 h", "setting": "[1]; in vivo, 50 mg/kg", "result": "930 ± 540", "unit": "ng/mL"}, {"measurement": "Concentration in Blood, 100 min.", "setting": "[1]; suppository, ampicillin sodium 50 mg/kg, 100 min (Table 8A, upper part)", "result": "trace"}, {"measurement": "Concentration in Blood, 10 min. (- Control)", "setting": "[2]; in vivo, po, 25 mg/kg, 10 min", "result": 0.3, "unit": "μg titer/ml"}, {"measurement": "Concentration in Blood, 20 min. (- Control)", "setting": "[2]; in vivo, po, 25 mg/kg, 20 min", "result": 0.6, "unit": "μg titer/ml"}, {"measurement": "Concentration in Blood, 40 min. (- Control)", "setting": "[2]; in vivo, po, 25 mg/kg, 40 min", "result": 1.3, "unit": "μg titer/ml"}, {"measurement": "Concentration in Blood, 60 min. (- Control)", "setting": "[2]; in vivo, po, 25 mg/kg, 1 h", "result": 0.5, "unit": "μg titer/ml"}, {"measurement": "concentration at 10 min", "setting": "[2]; in vivo, po, 25 mg/kg, Concentration in Blood, 10 min. (- Control)", "result": 400, "unit": "ng/mL"}, {"measurement": "concentration at 20 min", "setting": "[2]; in vivo, po, 25 mg/kg, Concentration in Blood, 20 min. (- Control)", "result": 800, "unit": "ng/mL"}, {"measurement": "concentration at 40 min", "setting": "[2]; in vivo, po, 25 mg/kg, Concentration in Blood, 40 min. (- Control)", "result": 1200, "unit": "ng/mL"}, {"measurement": "concentration at 1 h", "setting": "[2]; in vivo, po, 25 mg/kg, Concentration in Blood, 60 min. (- Control)", "result": 800, "unit": "ng/mL"}, {"measurement": "concentration at […]", "setting": "[2]; in vivo, po, 25 mg/kg, Concentration in Blood, 90 min. (- Control)", "result": 300, "unit": "ng/mL"}, {"measurement": "Concentration in Blood, 90 min. (- Control)", "setting": "[2]; stomach probe, ampicillin sodium without extract (Control), 90 min, tr.: trace", "result": "tr."}, {"measurement": "Concentration in Blood, 120 min. (- Control)", "setting": "[2]; stomach probe, ampicillin sodium without extract (Control), 120 min, tr.: trace", "result": "tr."}, {"measurement": "Concentration in Blood, 180 min. (- Control)", "setting": "[2]; stomach probe, ampicillin sodium without extract (Control), 180 min, tr.: trace", "result": "tr."}, {"measurement": "Concentration in Blood, 240 min. (- Control)", "setting": "[2]; stomach probe, ampicillin sodium without extract (Control), 240 min, tr.: trace", "result": "tr."}, {"measurement": "Concentration in Blood, 20 min. (Control)", "setting": "[3]; 20 min", "result": "0.89 ± 0.07", "unit": "μg titer/ml"}, {"measurement": "Concentration in Blood, 40 min. (Control)", "setting": "[3]; 40 min", "result": 1.1, "unit": "μg titer/ml"}, {"measurement": "Concentration in Blood, 240 min. (Control)", "setting": "[3]; 4 h", "result": 0.5, "unit": "μg titer/ml"}, {"measurement": "concentration at 10 min", "setting": "[3]; Concentration in Blood, 10 min. (Control)", "result": 600, "unit": "ng/mL"}, {"measurement": "concentration at 40 min", "setting": "[3]; Concentration in Blood, 40 min. (Control)", "result": 1100, "unit": "ng/mL"}, {"measurement": "concentration at 1 h", "setting": "[3]; Concentration in Blood, 60 min. (Control)", "result": 1200, "unit": "ng/mL"}, {"measurement": "concentration at 3 h", "setting": "[3]; Concentration in Blood, 180 min. (Control)", "result": 500, "unit": "ng/mL"}, {"measurement": "concentration at 4 h", "setting": "[3]; Concentration in Blood, 240 min. (Control)", "result": 500, "unit": "ng/mL"}]}
